# Entries after “also recorded” stand apart in the source; their conditions may differ.
# Tests used:
# [1] = system: human brain microvascular endothelial cell; assay: Endothelial barrier permeability by transendothelial electrical resistance; assay type: cell-based; details: MG with NAC
# Protocol: Moreover, treatment with 100 μM MG in rat thoracic aortic rings for 24 h decreases acetylcholine-induced vascular relaxation via a reduction in p-eNOS (Ser1177) and p-AMPKα (Thr172). MG can reduce endothelial angiogenesis through RAGE-mediated, ONOO(^−)-dependent and autophagy-induced VEGFR2 degradation. […] This is exacerbated by GSH synthesis inhibition and prevented by NAC. The enhanced MG concentration in diabetic patients can also directly contribute to the platelet dysfunction associated with diabetes. Platelet dysfunction is characterized by hyperaggregability and reduced thrombus stability via potentiating thrombin-induced platelet aggregation and dense granule release, but inhibiting platelet spreading on fibronectin and collagen. Given that endothelial dysfunction and enhanced platelet activation could promote stroke, these studies indicate that MG can contribute to ischemic brain injury.
# [2] = system: blood-brain barrier (BBB); assay: Blood-brain barrier permeability by Evans Blue extrusion; assay type: in vivo, mouse; details: STZ mice, NAC 3 weeks
# [3] = system: MG-protein adducts, occludin, GCLc in diabetic mouse brain; assay: Western blot of MG-protein adducts, occludin, GCLc and occludin glycation in brain; assay type: in vivo; details: STZ mice, NAC 3 weeks
# Protocol: Representative immunoblots are shown. The bar graphs show the quantitation of the protein band intensities normalized to β-actin; n=5/grp. […] Brain tissues were homogenized with RIPA lysis buffer containing 50 mM Tris, pH 8.0, 150 mM sodium chloride, 0.5% sodium deoxycholate, 0.1% SDS and protease inhibitor cocktail. Total protein (20 μg) per sample was loaded on 10% SDS-polyacrylamide gels. Electrophoresis was performed at 150V for 1 h, and transfer onto PVDF membranes at 100 V for 1 h. The membranes were blocked in 5% nonfat milk in TBST buffer containing 20 mM Tris, 137 mM NaCl, 0.1% Tween20, pH 7.6 for 40 min at room temperature followed by overnight incubation with either rabbit-anti-mouse occludin polyclonal antibody (1:2000), rabbit-anti-mouse GCGc polyclonal antibody (1:2000) or mouse anti-MG monoclonal antibody (1:2000) at 4° C. on an agitator. The second day, the PVDF membranes were incubated with HRP-conjugated goat-anti-rabbit or sheep-anti-mouse secondary antibody (1:10000) for 2 h at room temperature. Protein expression was detected using enhanced chemiluminescence (BIO-RAD) according to the manufacturer's instructions. The membranes were stripped and reprobed with anti-mouse actin monoclonal antibody (1:5000) to verify equal protein loading.
# [4] = system: STZ-treated diabetic mice, I/R brain injury; assay: Middle cerebral artery occlusion-reperfusion (MCAoR) brain infarct area in diabetic mice; assay type: in vivo, mouse; details: 2 mM NAC in drinking water 1 or 3 weeks before MCAoR, 45 min ischemia, 24 h reperfusion
# Protocol: Turning now to FIGS. 1A-1C, a brief description concerning the various components of the present invention will now be briefly discussed. As shown, ischemia/reperfusion (I/R) injury in control and diabetic brain was determined using the middle cerebral artery occlusion-reperfusion (MCAoR) model of Koizumi. MCA occlusion was for 45 min and reperfusion for 24 h. Diabetes model were: mice injected with streptozotocin (STZ) or Akita mice lacking the Insulin-2 gene which spontaneously developed diabetes in 4 wks. Results are mean±SE. NT=no treatment; Veh=citrate buffer; Veh+STZ=4 week post STZ. Ak—Akita. The post I/R infarct area is represented by the unstained (white) regions of left brain sections.
# Turning to FIGS. 12A-12C, I/R injury in control and diabetic brain was determined using the middle cerebral artery occlusion-reperfusion (MCAoR) model of Koizumi. MCA occlusion was for 45 min and reperfusion for 24 h. Diabetes was induced with streptozotocin (STZ) and stroke was induced in 4-week diabetic mice. NAC (2 mM) was given in drinking water for 3 weeks. Results are mean±SE. Veh=citrate buffer; STZ=4 week post STZ. The post I/R infarct area is represented by the unstained (white) regions of left brain sections after staining with TTC.
# Four-week-old male C57BL/6J mice, weighing 18-20 g, were purchased from Jackson Laboratory. […]
# [5] = system: cerebral microvessels of STZ diabetic mice; assay: Light-dye induced thrombosis in cerebral arterioles and venules of STZ diabetic mice; assay type: in vivo, mouse
compound,measurement,setting,value
"CC(=O)N[C@@H](CS)C(=O)O [NAC, N-acetylcysteine]",MG-induced endothelial barrier permeability,[1],prevented
same,leakage of Evans Blue (BBB permeability),[2],significantly decreased
same,MG-adduct formation in brain,[3],significantly decreased
same,occludin glycation in brain (immunoprecipitation),[3],significantly decreased
same,total protein expression of GCLc,[3],does not alter
same,total protein expression of occludin,[3],does not alter
same,percent infarct area,[4],significantly attenuated; also recorded: protects the diabetic brain against injury induced by I/R
same,thrombosis onset and cessation times in cerebral venules and arterioles,"[5]; 6 and 20 week diabetic mice, NAC 2 mM in drinking water for 3 weeks",provided protection against the accelerated thrombosis in both types of vessels
same,time to onset of thrombosis in brain microvessels,"[5]; 20 week diabetic mice, NAC 2 mM in drinking water for 1 week",decreases the accelerated onset of thrombosis
